Experiments:
Assay in all cases: relative viability (nuclei count vs DMSO), 5 days (fraction); higher = more cells survive
Ponatinib + Palbociclib = compound: Cc1ccc(C(=O)Nc2ccc(CN3CCN(C)CC3)c(C(F)(F)F)c2)cc1C#Cc1cnc2cccnn12 [Ponatinib] + CC(=O)c1c(C)c2cnc(Nc3ccc(N4CCNCC4)cn3)nc2n(C2CCCC2)c1=O [Palbociclib] (partner 0.5 µM)
In short: (§1)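 Relative viability was taken as the ratio of nuclei in treated wells to nuclei in vehicle wells. Lung cancer cell lines in 1536-well plates received compounds by pin tool one day after seeding, either one drug alone or a fixed anchor-drug dose plus five library-drug doses (not always all listed) in √10 steps. Nuclei were counted on 4× images after 5 days of treatment, and values are medians of duplicate plates.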

Ponatinib + AZD7762 = compound: Cc1ccc(C(=O)Nc2ccc(CN3CCN(C)CC3)c(C(F)(F)F)c2)cc1C#Cc1cnc2cccnn12 [Ponatinib] + NC(=O)Nc1cc(-c2cccc(F)c2)sc1C(=O)N[C@H]1CCCNC1 [AZD7762] (partner 0.2 µM)
In short: as §1

Ponatinib + Luminespib = compound: Cc1ccc(C(=O)Nc2ccc(CN3CCN(C)CC3)c(C(F)(F)F)c2)cc1C#Cc1cnc2cccnn12 [Ponatinib] + CCNC(=O)c1noc(-c2cc(C(C)C)c(O)cc2O)c1-c1ccc(CN2CCOCC2)cc1 [Luminespib] (partner 0.01 µM)
In short: as §1

Pazopanib + Palbociclib = compound: Cc1ccc(Nc2nccc(N(C)c3ccc4c(C)n(C)nc4c3)n2)cc1S(N)(=O)=O [Pazopanib] + CC(=O)c1c(C)c2cnc(Nc3ccc(N4CCNCC4)cn3)nc2n(C2CCCC2)c1=O [Palbociclib] (partner 0.5 µM)
In short: as §1

Cell Line	relative viability (Ponatinib + Palbociclib; first compound 0.002 µM)	relative viability (Ponatinib + Palbociclib; first compound 0.006325 µM)	relative viability (Ponatinib + Palbociclib; first compound 0.06325 µM)	relative viability (Ponatinib + Palbociclib; first compound 0.2 µM)	relative viability (Ponatinib + AZD7762; first compound 0.002 µM)	relative viability (Ponatinib + AZD7762; first compound 0.006325 µM)	relative viability (Ponatinib + AZD7762; first compound 0.06325 µM)	relative viability (Ponatinib + AZD7762; first compound 0.2 µM)	relative viability (Ponatinib + Luminespib; first compound 0.002 µM)	relative viability (Ponatinib + Luminespib; first compound 0.006325 µM)	relative viability (Ponatinib + Luminespib; first compound 0.06325 µM)	relative viability (Ponatinib + Luminespib; first compound 0.2 µM)	relative viability (Pazopanib + Palbociclib; first compound 0.01 µM)	relative viability (Pazopanib + Palbociclib; first compound 0.03162 µM)	relative viability (Pazopanib + Palbociclib; first compound 0.1 µM)	relative viability (Pazopanib + Palbociclib; first compound 0.3162 µM)	relative viability (Pazopanib + Palbociclib; first compound 1 µM)
A-427	0.511	0.535	0.528	0.438	0.713	0.73	0.593	0.582	0.908	0.799	1.08	0.75	0.536	0.565	0.476	0.554	0.526
NCI-H1792	0.605	0.66	0.655	0.62	0.708	0.478	0.55	0.407	0.354	0.422	0.465	0.389		0.632	0.598	0.649	0.71
LCLC-97TM1	0.233	0.239	0.252	0.221	0.141	0.264	0.289	0.28	0.677	0.704	0.647	0.439		0.202	0.212	0.205	0.264
LCLC-103H	0.464	0.517	0.491	0.431	0.699	0.809	0.734	0.753	0.928	0.974	0.908	0.733	0.409	0.517	0.495	0.439	0.5
RERF-LC-KJ	1.11	1.22	1.27	0.971	0.838	0.951	1.13	0.961	1.17	1.32	1.47	1.21	1.11	1.03	1.07	1.09	1.04
BEN	0.453	0.528	0.469	0.47	0.494	0.625	0.589	0.774	0.259	0.296	0.24	0.576	0.447	0.467	0.498	0.506	0.482
NCI-H1666	0.661	0.659	0.666	0.639	0.823	0.863	0.889	0.902	1.02	0.998	1.09	0.986	0.636	0.604	0.607	0.694	0.667
LC-2-ad	0.474	0.448	0.359	0.347	0.833	0.858	0.977	0.872	0.968	0.93	1.17	0.855	0.552	0.459	0.56	0.45	0.487
ChaGo-K-1	0.887	0.964	0.936	0.856	0.763	0.857	0.847	0.819	0.562	0.651	0.571	0.553	0.949	0.927	0.973	0.927	0.873
NCI-H1975	0.427	0.557	0.642	0.537	0.599	0.706	0.726	0.615	0.248	0.24	0.289	0.165	0.531	0.552	0.608	0.601	0.557
NCI-H1993	0.557	0.613	0.779	0.771	0.65	0.86	0.773	0.689	0.778	0.921	0.991	0.932		0.617	0.631	0.517	0.616
NCI-H23	0.521	0.495	0.683	0.509	0.266	0.244	0.237	0.14		0.22	0.211	0.196	0.42	0.531	0.614	0.594	0.586
EMC-BAC-2	0.469	0.486	0.476	0.42	0.996	1.05	1.13	0.989	1.06	1.15	1.28	1.07		0.522	0.488	0.511	0.492
NCI-H3122	0.194	0.186	0.213	0.203	0.846	0.903	1.05	0.924	0.113	0.0854	0.128	0.109	0.194	0.175	0.217	0.189	0.241
NCI-H2170	0.361	0.431	0.362	0.377	0.799	0.927	0.789	0.833	0.671	0.697	0.665	0.646	0.353	0.387	0.445	0.399	0.393
EPLC-272H	0.292	0.34	0.376	0.332	0.242	0.175	0.204	0.234	0.323	0.255	0.521	0.199		0.366	0.304	0.334	0.409
NCI-H1915	0.522	0.554	0.523	0.466	0.553	0.697	0.591	0.651	0.754	0.769	0.805	0.672	0.508	0.525	0.524	0.541	0.536
NCI-H647	0.358	0.345	0.47	0.438	0.294	0.381	0.482	0.335	0.136	0.225	0.158	0.234	0.345	0.463	0.363	0.361	0.29
NCI-H441	0.238	0.229	0.252	0.209	1.18	1.19	1.35	1.14	0.359	0.354	0.305	0.315	0.24	0.248	0.198	0.211	0.273

Cell Line	relative viability (Ponatinib + Palbociclib; first compound 0.002 µM)	relative viability (Ponatinib + Palbociclib; first compound 0.006325 µM)	relative viability (Ponatinib + Palbociclib; first compound 0.06325 µM)	relative viability (Ponatinib + Palbociclib; first compound 0.2 µM)	relative viability (Ponatinib + AZD7762; first compound 0.002 µM)	relative viability (Ponatinib + AZD7762; first compound 0.006325 µM)	relative viability (Ponatinib + AZD7762; first compound 0.06325 µM)	relative viability (Ponatinib + AZD7762; first compound 0.2 µM)	relative viability (Ponatinib + Luminespib; first compound 0.002 µM)	relative viability (Ponatinib + Luminespib; first compound 0.006325 µM)	relative viability (Ponatinib + Luminespib; first compound 0.06325 µM)	relative viability (Ponatinib + Luminespib; first compound 0.2 µM)	relative viability (Pazopanib + Palbociclib; first compound 0.01 µM)	relative viability (Pazopanib + Palbociclib; first compound 0.03162 µM)	relative viability (Pazopanib + Palbociclib; first compound 0.1 µM)	relative viability (Pazopanib + Palbociclib; first compound 0.3162 µM)	relative viability (Pazopanib + Palbociclib; first compound 1 µM)
NCI-H2342	0.548	0.522	0.461	0.498	0.436	0.457	0.467	0.456	0.759	0.701	0.834	0.601	0.538	0.501	0.496	0.489	0.515
NCI-H650	0.313	0.321	0.295	0.314	0.695	0.92	0.981	0.572	0.807	0.783	0.958	0.775	0.344	0.381	0.355	0.337	0.315
NCI-H1395	0.626	0.671	0.572	0.47	0.387	0.41	0.371	0.362	0.644	0.601	0.829	0.637	0.572	0.647	0.659	0.6	0.625
NCI-H358	0.137	0.129	0.148	0.136	0.45	0.567	0.509	0.46	0.406	0.418	0.597	0.262	0.134	0.141	0.121	0.112	0.122
NCI-H2085	0.466	0.458	0.509	0.509	0.962	0.944	0.909	0.814	0.459	0.459	0.446	0.432	0.483	0.462	0.487	0.48	0.462
NCI-H838	0.216	0.234	0.219	0.21	0.899	0.935	0.95	0.774	0.324	0.324	0.298	0.3	0.181	0.216	0.243	0.258	0.246
NCI-H460	0.218	0.212	0.223	0.177	0.478	0.552	0.564	0.576	0.0243	0.0378	0.0319	0.0324	0.212	0.287	0.122	0.0783	0.262
LOU-NH91	0.587	0.531	0.528	0.549	0.744	0.779	0.801	0.682	0.317	0.318	0.393	0.404	0.511	0.502	0.564	0.538	0.547
NCI-H322M	0.524	0.501	0.501	0.471	0.566	0.483	0.543	0.448	1	1	0.843	0.716	0.495	0.522	0.478	0.482	0.55
NCI-H727	0.737	0.708	0.769	0.654	0.508	0.575	0.567	0.576	0.321	0.444	0.516	0.261	0.662		0.634	0.597	0.718
NCI-H1944	0.331	0.392	0.435	0.338	0.454	0.489	0.543	0.664	0.666	0.684	0.833	0.743	0.287	0.357	0.33	0.332	0.41
NCI-H1734	0.34	0.358	0.347	0.284	0.514	0.516	0.418	0.461	0.195	0.181	0.186	0.173	0.33	0.369	0.353	0.378	0.344
LXF-289	0.606	0.613	0.6	0.611	1.03	1.13	1.19	1.1	0.598	0.661	0.774	0.641	0.591	0.581	0.629	0.571	0.598
H3255	0.325	0.312	0.297	0.297	0.817	0.858	1.05	0.95	0.862	0.887	0.805	0.929	0.314	0.315	0.349	0.328	0.361
201T	0.367	0.359	0.351	0.328	0.557	0.546	0.38	0.371	1.1	1.07	1.08	0.966	0.332	0.356	0.343	0.37	0.412
NCI-H2126	0.365	0.34	0.374	0.333	0.978	0.965	1.09	0.998	0.874	0.955	1.04	0.873	0.337	0.322	0.354	0.361	0.361
HOP-62	0.378	0.374	0.334	0.376	0.643	0.417	0.831	0.439	0.87	0.946	0.835	0.781	0.436	0.472	0.424	0.493	0.46
CAL-12T	0.295	0.524	0.622	0.535	0.548	0.554	0.611	0.5	0.37	0.505	0.436	0.447	0.487	0.687	0.348	0.486	0.577

Source: the supplement of paper PMC10307832
